# Data taken from US6825185B2, “Substituted aryl compounds as novel cyclooxygenase-2 selective inhibitors, compositions and methods of use” (NitroMed, Inc., priority 2000, dated 2004).
# Legend:
# [1] = target: COX-1 (Homo sapiens, UniProt P23219); experiment: COX-1 enzyme activity in human whole blood (A23187 stimulated, thromboxane B2 EIA); assay type: cell-based; design: Human blood (≈50 mL) from male or female donors who had not received any aspirin or NSAIDs for 14 days; endogenous in cells; host or cells: human whole blood from donors; conditions: for COX-1 Inhibition (% at 100 μM): test compound at 100 μM
# Sequence of COX-1 (P23219 24-599): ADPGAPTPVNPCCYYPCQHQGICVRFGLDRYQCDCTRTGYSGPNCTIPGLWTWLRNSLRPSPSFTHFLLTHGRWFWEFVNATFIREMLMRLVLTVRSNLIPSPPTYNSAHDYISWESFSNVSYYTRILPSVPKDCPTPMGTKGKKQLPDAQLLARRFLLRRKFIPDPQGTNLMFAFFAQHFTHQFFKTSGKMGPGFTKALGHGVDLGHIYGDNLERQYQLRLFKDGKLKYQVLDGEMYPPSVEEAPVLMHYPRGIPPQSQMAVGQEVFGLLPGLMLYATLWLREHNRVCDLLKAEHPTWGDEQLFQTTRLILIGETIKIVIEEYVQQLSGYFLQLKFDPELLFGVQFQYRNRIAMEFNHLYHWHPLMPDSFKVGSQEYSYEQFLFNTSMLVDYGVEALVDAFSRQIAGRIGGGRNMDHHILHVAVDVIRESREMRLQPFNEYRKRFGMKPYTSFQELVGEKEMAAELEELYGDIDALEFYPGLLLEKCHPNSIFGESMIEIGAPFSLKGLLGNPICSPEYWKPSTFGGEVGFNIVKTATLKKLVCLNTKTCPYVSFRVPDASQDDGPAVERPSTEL
# Procedure: (§1) The assay for COX-1 and COX-2 enzyme activity, in the human whole blood was performed as described in Brideau et al., Inflamm Res., 45: 68-74 (1996)). Human blood (≈50 mL) from male or female donors who had not received any aspirin or NSAIDs for 14 days was collected at two local area blood donor centers and placed in polypropylene syringes containing sodium heparin (20 units per mL blood, final concentration). The blood was transported to the laboratory on ice packs and used within 1.5 hours of collection. Upon receipt in the laboratory, the blood was allowed to come to room temperature for 15 minutes prior to distribution in 1 mL aliquots per well of 24 well tissue culture plates. The plates were then placed on a gently rotating platform shaker in a 5% CO2 incubator at 37° C. for 15 minutes. Test compounds were dissolved in DMSO, at 1000 fold the final desired concentration, and further diluted, as indicated, in DMSO. One μL of each dilution of the test compound was added per well, in duplicate wells; wells not receiving test compound (e.g., basal, background or control wells) received 1 μL DMSO.
# (§2) To induce COX-2, lipopolysaccharide (LPS) from E. coli (LPS, serotype 026:B6 or serotype 0127:B8, Sigma Chemical Co., St. Louis, Mo., Catalogue No. L3755 or L3129, respectively) was added at 10 μg/mL (2 μL of 5 mg/mL LPS in DMSO) to appropriate wells 15 minutes after the addition of the test compound. (Basal or background wells not incubated with LPS received 2 μL of DMSO.) For the stimulation of COX-1, the calcium ionophore, A23187 (free acid from Sigma Chemical Co., St. Louis, Mo., Catalogue No. C7522) was added at 25 μM (1 μL of 25 mM stock in DMSO) to separate wells 4.5 hours after the addition of the test compound. (Again, basal, background or control wells not stimulated with A23187 received 1 μL of DMSO.) At 5 hours after the addition of the test compound, all incubations were terminated by placement on ice and the addition of 2 mM EGTA (100 μL of 20 mM EGTA, tetrasodium, in PBS (phosphate buffered saline) without Ca^++ and Mg^++, pH 7.2)). The resulting solutions, were transferred by polyethylene transfer pipettes to 15 mL polypropylene centrifuge tubes and centrifuged at 1200 g for 10 minutes at 4° C. One hundred μL of plasma was removed from each blood sample and added to 1 mL of methanol in new 15 mL polypropylene centrifuge tubes, vortexed, and stored overnight at −20° C. The next day, the samples were centrifuged at 2000 g for 10 minutes at 4° C. and the supernatants transferred to glass tubes and evaporated to dryness. The samples were assayed for thromboxane B2 using EIA kits supplied by Cayman Chemical Co. (Ann Arbor, Mich., Catalogue No. 519031) in duplicate wells after reconstitution with EIA Buffer and appropriate dilution (2000 fold for COX-1 and 500 fold for Cox-2 samples).
# [2] = target: T1, COX-2 (Homo sapiens, UniProt P35354); experiment: COX-2 enzyme activity in human whole blood (LPS induced, thromboxane B2 EIA); assay type: cell-based; design: Human blood (≈50 mL) from male or female donors who had not received any aspirin or NSAIDs for 14 days; endogenous in cells; host or cells: human whole blood from donors, LPS-induced; conditions: test compound at 10 μM
# T1 sequence (P35354 18-604): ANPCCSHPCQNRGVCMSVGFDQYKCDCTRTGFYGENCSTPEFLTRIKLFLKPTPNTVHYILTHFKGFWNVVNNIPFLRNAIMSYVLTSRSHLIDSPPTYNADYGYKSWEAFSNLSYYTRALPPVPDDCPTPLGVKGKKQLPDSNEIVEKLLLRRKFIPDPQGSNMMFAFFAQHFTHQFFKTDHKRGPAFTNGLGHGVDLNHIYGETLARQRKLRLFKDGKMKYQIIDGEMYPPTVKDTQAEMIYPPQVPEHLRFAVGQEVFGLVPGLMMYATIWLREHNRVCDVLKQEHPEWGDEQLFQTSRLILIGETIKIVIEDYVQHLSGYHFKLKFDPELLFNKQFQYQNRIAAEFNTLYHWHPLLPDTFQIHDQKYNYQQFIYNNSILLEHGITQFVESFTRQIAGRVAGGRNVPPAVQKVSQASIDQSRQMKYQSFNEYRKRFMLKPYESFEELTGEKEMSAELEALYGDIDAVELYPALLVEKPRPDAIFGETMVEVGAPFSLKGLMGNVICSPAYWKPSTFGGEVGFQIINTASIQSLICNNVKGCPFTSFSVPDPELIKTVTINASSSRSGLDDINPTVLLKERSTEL
# Procedure: as §1, with “Human” for “The assay for COX-1 and COX-2 enzyme activity, in the human whole blood was performed as described in Brideau et al., Inflamm Res., 45: 68-74 (1996)). Human”
# as §2, with “(Basal or background wells not incubated with LPS received 2 μL of DMSO.) For the stimulation of COX-1, the calcium ionophore, A23187 (free acid from Sigma Chemical Co., St. Louis, Mo., Catalogue No. C7522) was added at 25 μM (1 μL of 25 mM stock in DMSO) to separate wells 4.5 hours after the addition of the test compound.” left out, “dryness.” for “dryness. The samples were assayed for thromboxane B2 using EIA kits supplied by Cayman Chemical Co. (Ann Arbor, Mich., Catalogue No. 519031) in duplicate wells after reconstitution with EIA Buffer and appropriate dilution (2000 fold for COX-1 and 500 fold for Cox-2 samples).”
Compound,COX-1 Inhibition (% at 100 μM) [1],COX-2 Inhibition (% at 10 μM) [2],COX-1 Inhibition (% at 30 μM) ([1]; test compound at 30 μM)
"C/C(=C\c1cc2c(cc1-c1ccc(S(C)(=O)=O)cc1)OCO2)CO [Example 7e, 1-(6-((1E)-3-Hydroxy-2-methylprop-1-enyl)(2H-benzo(3,4-d)1,3-dioxolan-5-yl))-4-(methylsulfonyl)benzene]",20%,10%,
"CS(=O)(=O)c1ccc(-c2cc3c(cc2C(=O)c2cccc(CO[N+](=O)[O-])c2)OCO3)cc1 [Example 12d, 6-(4-(methylsulfonyl)phenyl)(2H-benzo(d)1,3-dioxolan-5-yl)3-((nitrooxy)methyl)phenylketone]",20%,20%,
"Ethyl 7-((3,5-difluorophenyl)methyl)-6-(4-(methylsulfonyl)phenyl)-2H, 3H-benzo(e)1,4-dioxin-2-carboxylate and ethyl 6-((3, 5-difluorophenyl)methyl)-7-(4-(methylsulfonyl)phenyl)-2H, 3H-benzo(e)1,4-dioxin-2-carboxylate [Example 18a]",90%,65%,
"Cc1cccc(C(=O)c2cc3c(cc2-c2ccc(S(C)(=O)=O)cc2)OCO3)c1 [Example 12c, 3-Methylphenyl 6-(4-(methylsulfonyl)phenyl)(2H-benzo(d)1,3-dioxolan-5-yl)ketone]",90%,90%,
"1-(7-((3,5-Difluorophenyl)methyl)-2-((nitrooxy)methyl)(2H, 3H-benzo(3,4-e)1, 4-dioxin-6-yl))-4-(methylsulfonyl)benzene and 1-(7-((3,5-difluorophenyl)methyl)-3-((nitrooxy)methyl)(2H, 3H-benzo(e)1,4-dioxin-6-yl))-4-(methylsulfonyl)benzene [Example 19b]",65%,35%,
"COc1cc(Cc2cc(F)cc(F)c2)c(-c2ccc(S(C)(=O)=O)cc2)cc1OC [Example 17d, 5-(1-(3′,5′-Difluorophenyl)methyl)-1,2-dimethoxy-4-(4-methylsulfonylphenyl)benzene]",25%,20%,
"CS(=O)(=O)c1ccc(-c2cc3c(cc2C(=O)c2ccccc2F)OCO3)cc1 [Example 4d, 2-Fluorophenyl 6-(4-(methylsulfonyl)phenyl)(2H-benzo(d)1,3-dioxolan-5-yl) ketone]",70%,90%,
"CS(=O)(=O)c1ccc(-c2cc3c(cc2C(=O)c2cc(F)cc(F)c2)OCO3)cc1 [Example 16, 4-(1-(3′,5′-Difluorophenyl)-1-oxomethyl)-1,2-methylenedioxy-5-(4-methylsulfonylphenyl)benzene]",50%,100%,
"CCOC(=O)C1(C(=O)OCC)Oc2cc(Cc3cc(F)cc(F)c3)c(-c3ccc(S(C)(=O)=O)cc3)cc2O1 [Example 17f, 1,2-(Bis(ethoxycarbonyl))methylenedioxy-5-(1-(3′,5′-difluorophenyl)methyl)--4-(4-methylsulfonylphenyl)benzene]",10%,25%,
"CCOC(=O)/C(C)=C/c1cc2c(cc1-c1ccc(S(C)(=O)=O)cc1)OCO2 [Example 7d, Ethyl (2E)-2-methyl-3-(6-(4-(methylsulfonyl)phenyl)(2H-benzo(d)1,3-dioxolan-5-yl))prop-2-enoate]",5%,35%,
"CS(=O)(=O)c1ccc(-c2cc3c(cc2Cc2cccc(F)c2)OCO3)cc1 [Example 5c, 1-(6-((3-Fluorophenyl)methyl)(2H-benzo(3,4-d)1,3-dioxolan-5-yl))-4-(methylsulfonyl)benzene]",55%,90%,
"CS(=O)(=O)c1ccc(-c2cc3c(cc2C(=O)C2CCCCC2)OCO3)cc1 [Example 2c, Cyclohexyl 6-(4-(methylsulfonyl)phenyl)(2H-benzo(d)1,3-dioxolan-5-yl) ketone]",,85%,70 (at 30 μM) %
"CS(=O)(=O)c1ccc(-c2cc3c(cc2CC2CCCCCC2)OCO3)cc1 [Example 11c, 4-(6-(Cycloheptylmethyl)(2H-benzo(3,4-d)1,3-dioxolan-5-yl))-1-(methylsulfonyl)benzene]",40%,80%,
"CS(=O)(=O)c1ccc(-c2cc3c(cc2C(=O)c2cccc(F)c2)OCO3)cc1 [Example 5d, 3-Fluorophenyl 6-(4-(methylsulfonyl)phenyl)(2H-benzo(d)1,3-dioxolan-5-yl) ketone]",70%,95%,
